Results as given in patent US4638003A, “1-(4-alkylthiophenyl)-2-(substituted or unsubstituted piperazine-1-yl)-1,3-propanediol, pharmaceutical compositions containing them useful as antiarrhythmic and vasodilating agents” (Zambon S.p.A., priority 1983, dated 1987).
Structures can show the parent of a compound that is named as a salt.

Key:
anesthetized rat [1] = assay: antiarrhythmic activity against calcium chloride-induced arrhythmia after intravenous administration in anesthetized rat; format: in vivo; settings: for ED50: Rattus norvegicus, iv, ten minutes before calcium chloride, read-out: ED50 (dose effective to antagonize the appearance of arrythmia in the 50% of the treated animals)
Experimental: The evaluation of the antiarrhythmic activity has been performed in the anesthetized rat with the method of M. Malinov et al. (Am. J. Physiol. 172, 743-746, 1953).
Arrythmia has been induced by administering (0.25 ml in 30 seconds) a saline solution containing 15% of calcium chloride into the jugular vein.
In these experimental conditions arrythmia occurs in the 90% of the animals. The compounds have been administered intravenously ten minutes before calcium chloride. The antiarrythmic activity has been referred as dose effective to antagonize the appearance of arrythmia in the 50% of the treated animals (ED50).

anesthetized rat [2] = assay: coronary dilating activity (coronary spasm induced by Vasopressin, T wave in E.C.G.) in anesthetized rat; format: in vivo; settings: T wave restored in 50% of the animals within 2 minutes; for ED50: Rattus norvegicus, iv, 2 min
Description: The evaluation of the coronary dilating activity has been performed with the method of O. Nieschultz, et al. (Arzneim. Forsch. 5, 680, 1955).

[3] = test system: isolated rabbit aorta (vascular smooth muscle); assay: calcium antagonist activity on isolated rabbit aorta (CaCl2-induced contraction)
Description: Isolated rabbit aorta: ratio between the CaCl2 con-

anesthetized rat [4] = assay: in vivo; format: in vivo; settings: for Tolerability: Heart rate (-20%): i.v., compounds solubilized in 40% glyceril formal; for Therapeutic index: ratio between the dose inducing bradycardia 20 and the effective anti-anginal dose 50
Description: (§1) Furthermore, tolerability has been tested in the same experimental conditions in which it has been performed the pharmacological study in vivo.
(§2) Tolerability has been referred as effective dose to reduce heart rate of 20%. Therapeutic index has been determined as ratio between the dose inducing bradycardia 20 and the effective anti-anginal dose 50.

in vivo = format: in vivo; settings: rat, in vivo, iv, ratio between the dose inducing bradycardia 20 and the effective anti-anginal dose 50; read-out: Therapeutic index
Description: as §1, §2

[5] = read-out: Coronary dilating activity ED50, i.v. 60 seconds after Vasopressin
[6] = concentration in perfused liquid 10^-5 M
[7] = concentration in perfused liquid 10^-6 M
[8] = i.v. 60 seconds after Vasopressin
[9] = i.v. 60 seconds after Vasopressin, read-out: Coronary dilating activity ED50

| SMILES | ED50 (anesthetized rat [2]; [5]) | ratio between the CaCl2 concentration producing the 50% contraction in presence or in absence of various compounds [3, 6] | ratio between the CaCl2 concentration producing the 50% contraction in presence or in absence of various compounds [3, 7] | Tolerability: Heart rate (-20%) (anesthetized rat [4]) | selectivity ratio (in vivo) | also measured |
| --- | --- | --- | --- | --- | --- | --- |
| COc1ccc(CCN(C)CCCC(C#N)(c2ccc(OC)c(OC)c2)C(C)C)cc1OC (centres unmarked) [Verapamil, reference compound] | 0.00015 µmol/kg |  |  |  |  | ED50 (anesthetized rat [1]): 6 µmol/kg; number of protected rats/total number (anesthetized rat [1]; dose 4.4 μmols/Kg i.v.): 2/8; number of protected rats/total number (anesthetized rat [1]; dose 7.7 μmols/Kg i.v.): 5/8; number of protected rats/total number (anesthetized rat [1]; dose 11 μmols/Kg i.v.): 6/8 |
| CSc1ccc([C@H](O)[C@H](CO)NC(C)COc2ccccc2)cc1 (some centres unmarked) [Z. 1394] |  | 7 | 3 |  |  |  |
| CSc1ccc([C@H](O)[C@H](CO)NC(C)COc2ccccc2)cc1 (some centres unmarked) [Z. 1393] | 0.0038 µmol/kg |  |  | 35 nmols/kg | 9 |  |
| CSc1ccc([C@@H](O)[C@@H](CO)NC(C)COc2ccccc2)cc1 (some centres unmarked) [Z. 1408] |  |  |  | 76 nmols/kg |  | ED50 (anesthetized rat [1]): 35 µmol/kg; number of protected rats/total number (anesthetized rat [1]; dose 16 μmols/Kg i.v.): 1/8; number of protected rats/total number (anesthetized rat [1]; dose 32 μmols/Kg i.v.): 4/8; number of protected rats/total number (anesthetized rat [1]; dose 56 μmols/Kg i.v.): 6/8; Therapeutic index (anesthetized rat [4]): 21; Coronary dilating activity ED50 (anesthetized rat [2]; [8]): 3.7 nmols/kg/i.v. |
| CSc1ccc([C@H](O)[C@H](CO)NCCC(c2ccccc2)c2ccccc2)cc1 [Z. 1382, (1S,2S)-1-(4-methylthiophenyl)-2-(3,3-diphenylpropylamino)-1,3-propanediol acid maleate] | 0.00084 µmol/kg | 255 | 20 | 17 nmols/kg | 20 | ED50 (anesthetized rat [1]): 19 µmol/kg; number of protected rats/total number (anesthetized rat [1]; dose 7.6 μmols/Kg i.v.): 1/8; number of protected rats/total number (anesthetized rat [1]; dose 13.4 μmols/Kg i.v.): 4/8; number of protected rats/total number (anesthetized rat [1]; dose 20 μmols/Kg i.v.): 3/8; number of protected rats/total number (anesthetized rat [1]; dose 27 μmols/Kg i.v.): 5/8 |
| CSc1ccc([C@@H](O)[C@@H](CO)NC(C)COc2ccccc2)cc1 (some centres unmarked) [Z. 1407] | 0.0032 µmol/kg |  |  | 53 nmols/kg | 17 |  |
| CSc1ccc([C@@H](O)[C@H](CO)NCCC(c2ccccc2)c2ccccc2)cc1 [Z. 1373] | 0.0034 µmol/kg | 86 | 9 | 23 nmols/kg | 7 |  |
| CC(Cc1ccccc1)NCCC(c1ccccc1)c1ccccc1 (centres unmarked) [Prenylamine, reference compound] | 0.00184 µmol/kg | 62 | 12 | 19 nmols/kg | 11 |  |
| CSc1ccc([C@H](O)[C@H](CO)NCC(c2ccccc2)c2ccccc2)cc1 [Z. 1415, (1S,2S)-1-(4-methylthiophenyl)-2-(2,2-diphenylethylamino)-1,3-propanediol] | 0.0029 µmol/kg | 27 | 6 | 49 nmols/kg | 17 |  |
| CSc1ccc([C@H](O)[C@H](CO)NC(C)CCc2ccccc2)cc1.Cl (relative stereo) [Z. 1411, (1S,2S)-1-(4-methylthiophenyl)-2-(1-methyl-3-phenylpropylamino)-1,3-propanediol hydrochloride] | 0.001 µmol/kg | 15 | 10 | 44 nmols/kg | 44 | ED50 (anesthetized rat [1]): 13 µmol/kg; number of protected rats/total number (anesthetized rat [1]; dose 8 μmols/Kg i.v.): 0/8; number of protected rats/total number (anesthetized rat [1]; dose 12 μmols/Kg i.v.): 4/8; number of protected rats/total number (anesthetized rat [1]; dose 16 μmols/Kg i.v.): 6/8 |
| CSc1ccc([C@H](O)[C@H](CO)N(C)C(C)CCc2ccccc2)cc1 (some centres unmarked) [Z. 1428] |  | 30 | 2 |  |  |  |
| CSc1ccc([C@H](O)[C@H](CO)NC(C)c2ccccc2)cc1 (relative stereo) [Z. 1413, (1S,2S,1'S*)-1-(4-methylthiophenyl)-2-(1-methylbenzylamino)-1,3-propanediol] |  |  |  | 230 nmols/kg |  | Therapeutic index (anesthetized rat [4]): 51; Coronary dilating activity ED50 (anesthetized rat [2]; [8]): 4.5 nmols/kg/i.v. |
| COc1ccc(CCC(C)N[C@@H](CO)[C@@H](O)c2ccc(SC)cc2)cc1OC.Cl (relative stereo) [Z. 1434, (1S,2S)-1-(4-methylthiophenyl)-2-[1-methyl-3-(3,4-dimethoxyphenyl)-propylamino]-1,3propanediol hydrochloride] | 0.00045 µmol/kg | 21 | 5 | 42 nmols/kg | 93 |  |
| Fc1ccc(C(c2ccc(F)cc2)N2CCN(C/C=C/c3ccccc3)CC2)cc1 [Flunarizine, reference compound] |  | 16 | 1 |  |  | ED50 (anesthetized rat [2]; [9]): 0.00048 µmol/kg |
| COC(=O)C1=C(C)NC(C)=C(C(=O)OC)C1c1ccccc1[N+](=O)[O-] [Nifedipine, reference compound] |  |  |  |  |  | ED50 (anesthetized rat [2]; [9]): 0.00057 µmol/kg |
| CSc1ccc([C@H](O)[C@H](CO)NC(C)c2ccccc2)cc1 (some centres unmarked) [Z. 1414] | 0.004 µmol/kg |  |  | 100 nmols/kg |  | Therapeutic index (anesthetized rat [4]): 25 |
| CSc1ccc([C@H](O)[C@H](CO)N2CCN(C(c3ccccc3)c3ccccc3)CC2)cc1 [Z. 1439] | 0.0033 µmol/kg | 24 | 4 | 23 nmols/kg | 7 |  |
| CSc1ccc([C@H](O)[C@H](CO)NCC(C)c2ccccc2)cc1.Cl (stereo partly drawn) [Z. 1409, (1S,2S)-1-(4-methylthiophenyl)-2-(2-phenylpropylamino)-1,3-propanediol hydrochloride] | 0.00084 µmol/kg | 12 | 4 | 73 nmols/kg | 87 | ED50 (anesthetized rat [1]): 43 µmol/kg; number of protected rats/total number (anesthetized rat [1]; dose 8 μmols/Kg i.v.): 0/8; number of protected rats/total number (anesthetized rat [1]; dose 16 μmols/Kg i.v.): 2/8; number of protected rats/total number (anesthetized rat [1]; dose 24 μmols/Kg i.v.): 3/8; number of protected rats/total number (anesthetized rat [1]; dose 48 μmols/Kg i.v.): 5/8 |
